pKi: −log10 of the molar value.
Tests used:
[1] = biological target: GSK3β (H350L) (Homo sapiens (Human), UniProt P49841); details: read-out: GSK3β Ki
Procedure: The assay was initiated with the addition of ATP, following 15 minutes pre-incubation of enzyme and inhibitor at room temperature in the reaction mixture. The reaction was stopped after 30 minutes at room temperature by the addition of 50 μL of 80 mM EDTA.

[2] = biological target: CDK2/Cyclin E1 full length (Homo sapiens (Human), UniProt P24941); assay: CDK2/Cyclin E1 full length mobility shift assay; type: biochemical

GSK3β (H350L), sequence (P49841 whole entry, stated change not applied): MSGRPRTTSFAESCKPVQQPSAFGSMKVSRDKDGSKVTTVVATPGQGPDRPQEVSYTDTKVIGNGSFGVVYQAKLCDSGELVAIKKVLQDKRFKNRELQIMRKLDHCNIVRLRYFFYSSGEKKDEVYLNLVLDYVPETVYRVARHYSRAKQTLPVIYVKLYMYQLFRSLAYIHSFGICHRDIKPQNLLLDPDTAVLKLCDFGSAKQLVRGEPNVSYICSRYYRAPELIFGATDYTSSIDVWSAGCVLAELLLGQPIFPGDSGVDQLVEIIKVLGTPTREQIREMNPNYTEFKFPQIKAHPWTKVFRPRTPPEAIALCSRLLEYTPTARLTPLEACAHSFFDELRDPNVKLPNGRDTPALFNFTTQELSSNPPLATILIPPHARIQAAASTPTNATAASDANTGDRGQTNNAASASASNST

SMILES | pKi [1] | pKi [2]
CC[C@H](C)NC(=O)O[C@@H]1CC[C@H](c2cc(NC(=O)c3cc(COC)nn3C)n[nH]2)C1 [Example 14, (1R,3S)-3-[3-({[3-(methoxymethyl)-1-methyl-1H-pyrazol-5-yl]carbonyl}amino)-1H-pyrazol-5-yl]cyclopentyl (2S)-butan-2-ylcarbamate] | 6.53 | 9.57
Cc1ncc(CC(=O)Nc2cc([C@@H]3CC[C@H](OC(=O)N[C@H]4CC[C@](C)(O)CC4)C3)[nH]n2)s1 [Example 563, (1S,3R)-3-(3-{[(2-methyl-1,3-thiazol-5-yl)acetyl]amino}-1H-pyrazol-5-yl)cyclopentyl (trans-4-hydroxy-4-methylcyclohexyl)carbamate] | 8.36 | 8.74
CCCNC(=O)O[C@@H]1CC[C@H](c2cc(NC(=O)Cc3ccccc3S(=O)(=O)CC)n[nH]2)C1 [Example 205, (1R,3S)-3-[3-({[2-(ethylsulfonyl)phenyl]-acetyl}amino)-1H-pyrazol-5-yl]cyclopentyl propylcarbamate] | 7.01 | 9.12
COc1cc(CC(=O)Nc2cc([C@H]3CC[C@@H](OC(=O)NC(C)C)C3)[nH]n2)ccn1 [Example 276, (1R,3S)-3-(3-{[(2-methoxypyridin-4-yl)acetyl]amino}-1H-pyrazol-5-yl)cyclopentyl propan-2-ylcarbamate] | 7.48 | 9.19
COc1ccc(CC(=O)Nc2cc([C@H]3CC[C@@H](OC(=O)N(C)C(C)C)C3)[nH]n2)cn1 [Example 59] | 8.54 | 9.82
Cc1cccc(CC(=O)Nc2cc([C@H]3CC[C@@H](OC(=O)NC4(C)CC4)C3)[nH]n2)n1 [Example 426, (1R,3S)-3-(3-{[(6-methylpyridin-2-yl)acetyl]amino}-1H-pyrazol-5-yl)cyclopentyl (1-methylcyclopropyl)carbamate] | 7.77 | 9.28
CC[C@H](C)NC(=O)O[C@@H]1CC[C@H](c2cc(NC(=O)Cc3ccnn3C)n[nH]2)C1 [Example 326, (1R,3S)-3-(3-{[(1-methyl-1H-pyrazol-5-yl)acetyl]amino}-1H-pyrazol-5-yl)cyclopentyl (2S)-butan-2-ylcarbamate] | 7.14 | 8.93
Cn1ccc(CC(=O)Nc2cc([C@H]3CC[C@@H](OC(=O)N4CCCC4(C)C)C3)[nH]n2)n1 [Example 136] | 8.09 | 9.66
Cn1cc(CC(=O)Nc2cc([C@H]3CC[C@@H](OC(=O)NC4(C)CCOCC4)C3)[nH]n2)cn1 [Example 506, (1R,3S)-3-(3-{[(1-methyl-1H-pyrazol-4-yl)acetyl]amino}-1H-pyrazol-5-yl)cyclopentyl (4-methyltetrahydro-2H-pyran-4-yl)carbamate] | 7.11 | 9.12
CC[C@H](C)NC(=O)O[C@@H]1CC[C@H](c2cc(NC(=O)Cc3ccc(OC)nc3)n[nH]2)C1 [Example 346, (1R,3S)-3-(3-{[(6-methoxypyridin-3-yl)acetyl]amino}-1H-pyrazol-5-yl)cyclopentyl (2S)-butan-2-ylcarbamate] | 7.97 | 9.59
COc1cc(CC(=O)Nc2cc([C@H]3CC[C@@H](OC(=O)N4C[C@@](C)(O)[C@@H]4C)C3)[nH]n2)ccn1 [Example 625, (1R,3S)-3-(3-{[(2-methoxypyridin-4-yl)acetyl]amino}-1H-pyrazol-5-yl)cyclopentyl (2S,3R)-3-hydroxy-2,3-dimethylazetidine-1-carboxylate] | 8.30 | 9.35
Cc1cnc(CC(=O)Nc2cc([C@H]3CC[C@@H](OC(=O)N4CCC[C@@H]4C)C3)[nH]n2)o1 [Example 635, (1R,3S)-3-(3-{[(5-methyl-1,3-oxazol-2-yl)acetyl]amino}-1H-pyrazol-5-yl)cyclopentyl (2S)-2-methylpyrrolidine-1-carboxylate] | 7.79 | 9.28
COc1cccc(CC(=O)Nc2cc([C@H]3CC[C@@H](OC(=O)NC4(C)CC4)C3)[nH]n2)n1 [Example 434, (1R,3S)-3-(3-{[(6-methoxypyridin-2-yl)acetyl]amino}-1H-pyrazol-5-yl)cyclopentyl (1-methylcyclopropyl)carbamate] | 7.40 | 9.32
COc1ccc(CC(=O)Nc2cc([C@@H]3CC[C@H](OC(=O)N[C@H]4CC[C@](C)(O)CC4)C3)[nH]n2)cc1 [Example 565, (1S,3R)-3-(3-{[(4-methoxyphenyl)acetyl]amino}-1H-pyrazol-5-yl)cyclopentyl (trans-4-hydroxy-4-methylcyclohexyl)carbamate] | 8.39 | 8.91
Cc1cc(CC(=O)Nc2cc([C@H]3CC[C@@H](OC(=O)N4[C@@H](C)COC[C@@H]4C)C3)[nH]n2)on1 [Example 648, (1R,3S)-3-(3-{[(3-methyl-1,2-oxazol-5-yl)acetyl]amino}-1H-pyrazol-5-yl)cyclopentyl (3S,5S)-3,5-dimethylmorpholine-4-carboxylate] | 7.91 | 9.33
Cc1cc(CC(=O)Nc2cc([C@H]3CC[C@@H](OC(=O)N4CCC4(C)C)C3)[nH]n2)on1 [Example 12, (1R,3S)-3-(3-{[(3-methyl-1,2-oxazol-5-yl)acetyl]amino}-1H-pyrazol-5-yl)cyclopentyl 2,2-dimethylazetidine-1-carboxylate] | 8.31 | 9.89
Cc1cc(CC(=O)Nc2cc([C@H]3CC[C@@H](OC(=O)N4CCC[C@@H]4C)C3)[nH]n2)no1 [Example 634, (1R,3S)-3-(3-{[(5-methyl-1,2-oxazol-3-yl)acetyl]amino}-1H-pyrazol-5-yl)cyclopentyl (2S)-2-methylpyrrolidine-1-carboxylate] | 7.84 | 9.00
CCCCNC(=O)O[C@H]1CC[C@@H](c2cc(NC(=O)Cc3ccno3)n[nH]2)C1 [Example 258, (1S,3R)-3-{3-[(1,2-oxazol-5-ylacetyl)amino]-1H-pyrazol-5-yl}cyclopentyl butylcarbamate] | 7.97 | 9.13
Cc1cnc(CC(=O)Nc2cc([C@H]3CC[C@@H](OC(=O)NC4(C)CC4)C3)[nH]n2)cn1 [Example 428, (1R,3S)-3-(3-{[(5-methylpyrazin-2-yl)acetyl]amino}-1H-pyrazol-5-yl)cyclopentyl (1-methylcyclopropyl)carbamate] | 7.52 | 9.40
Cc1cnc(CC(=O)Nc2cc([C@H]3CC[C@@H](OC(=O)NC4(CC(F)(F)F)CC4)C3)[nH]n2)cn1 [Example 455, (1R,3S)-3-(3-{[(5-methylpyrazin-2-yl)acetyl]amino}-1H-pyrazol-5-yl)cyclopentyl [1-2,2,2-trifluoroethyl)cyclopropyl] carbamate] | 7.67 | 9.33
CC1(NC(=O)O[C@@H]2CC[C@H](c3cc(NC(=O)Cc4ccc(Cl)cn4)n[nH]3)C2)CC1 [Example 437, (1R,3S)-3-(3-{[(5-chloropyridin-2-yl)acetyl]amino}-1H-pyrazol-5-yl)cyclopentyl (1-methylcyclopropyl)carbamate] | 7.80 | 9.29
COc1cc(CC(=O)Nc2cc([C@H]3CC[C@@H](OC(=O)NC(C)(C)C)C3)[nH]n2)c(OC)cn1 [Example 315, (1R,3S)-3-(3-{[(2,5-dimethoxypyridin-4-yl)acetyl]amino}-1H-pyrazol-5-yl)cyclopentyl tert-butylcarbamate] | 6.88 | 9.19
CC[C@H](C)NC(=O)O[C@@H]1CC[C@H](c2cc(NC(=O)Cc3cccc(C)c3S(C)(=O)=O)n[nH]2)C1 [Example 372, (1R,3S)-3-[3-({[3-methyl-2-(methylsulfonyl)phenyl]acetyl}amino)-1H-pyrazol-5-yl]cyclopentyl (2S)-butan-2-ylcarbamate] | 6.94 | 9.07

Next, values leading:

pKi [1] | pKi [2] | SMILES
7.62 | 9.68 | CCC(C)(C)NC(=O)O[C@@H]1CC[C@H](c2cc(NC(=O)Cc3ncc(C)o3)n[nH]2)C1 [Example 62]
6.46 | 9.70 | CC[C@H](C)NC(=O)O[C@@H]1CC[C@H](c2cc(NC(=O)c3cc(OC)nn3C)n[nH]2)C1 [Example 41]
7.80 | 9.85 | CC1(NC(=O)O[C@@H]2CC[C@H](c3cc(NC(=O)Cc4ccno4)n[nH]3)C2)CCCC1 [Example 117]
7.21 | 9.96 | CC[C@H](C)NC(=O)O[C@@H]1CC[C@H](c2cc(NC(=O)Cc3ccc(C)cc3S(C)(=O)=O)n[nH]2)C1 [Example 45]
7.72 | 9.28 | CCN(C)C(=O)O[C@@H]1CC[C@H](c2cc(NC(=O)Cc3cc(F)cc(F)c3)n[nH]2)C1 [Example 245, (1R,3S)-3-(3-{[(3,5-difluorophenyl)acetyl]amino}-1H-pyrazol-5-yl)cyclopentyl ethyl(methyl)carbamate]
7.29 | 9.06 | C[C@H]1CCN1C(=O)O[C@@H]1CC[C@H](c2cc(NC(=O)c3cnnn3C)n[nH]2)C1 [Example 586, (1R,3S)-3-(3-{[(1-methyl-1H-1,2,3-triazol-5-yl)carbonyl]amino}-1H-pyrazol-5-yl)cyclopentyl (2S)-2-methylazetidine-1-carboxylate]
< 7.32 | 9.33 | COCc1cc(C(=O)Nc2cc([C@H]3CC[C@@H](OC(=O)N[C@H](C)C4CC4)C3)[nH]n2)n(C)n1 [Example 105]
8.16 | 9.60 | Cc1cnc(CC(=O)Nc2cc([C@H]3CC[C@@H](OC(=O)N4CCC4(C)C)C3)[nH]n2)o1 [Example 147]
8.48 | 9.46 | COc1ccc(CC(=O)Nc2cc([C@@H]3CC[C@H](OC(=O)N[C@H]4CC[C@@](C)(O)CC4)C3)[nH]n2)cn1 [Example 570, (1S,3R)-3-(3-{[(6-methoxypyridin-3-yl)acetyl]amino}-1H-pyrazol-5-yl)cyclopentyl (cis-4-hydroxy-4-methylcyclohexyl)carbamate]
6.11 | 9.42 | COCc1cc(C(=O)Nc2cc([C@H]3CC[C@@H](OC(=O)NC(C)(C)C)C3)[nH]n2)n(C)n1 [Example 111]
8.38 | 9.60 | CCCNC(=O)O[C@H]1CC[C@@H](c2cc(NC(=O)Cc3ccc(OC)nc3)n[nH]2)C1 [Example 21]

From patent US11014911B2, “CDK2 inhibitors” (Pfizer Inc., priority 2019, dated 2021)
